Test results as given in patent US20250188069A1, “COMPOUNDS AND METHODS FOR DEGRADING CASEIN KINASE 1 ALPHA” (PIN THERAPEUTICS, INC., priority 2022, published 2025).
Where a name gives a salt, the structure may show the parent alone. Read-outs that look alike come from different tables or passages of the source.

Columns and labels:
MV-4-11 cells = experiment: AML cell viability assay (RealTime-Glo); type: cell-based; settings: Homo sapiens, read-out: Cell viability classification
CK1α = CK1α (Homo sapiens, UniProt P48729+Q96SW2); experiment: CK1α degradation, flow cytometry in MV4-11 cells; type: cell-based; set-up: CK1α levels were determined in MV-4-11 cells using Jess (Protein Simple); host or cells: MV-4-11; settings: % reduction of CK1α compared to DMSO, MV4-11 cells at 316 nM for 16 hours, read-out: CK1α degradation classification
Chain of CK1α (P48729 whole entry): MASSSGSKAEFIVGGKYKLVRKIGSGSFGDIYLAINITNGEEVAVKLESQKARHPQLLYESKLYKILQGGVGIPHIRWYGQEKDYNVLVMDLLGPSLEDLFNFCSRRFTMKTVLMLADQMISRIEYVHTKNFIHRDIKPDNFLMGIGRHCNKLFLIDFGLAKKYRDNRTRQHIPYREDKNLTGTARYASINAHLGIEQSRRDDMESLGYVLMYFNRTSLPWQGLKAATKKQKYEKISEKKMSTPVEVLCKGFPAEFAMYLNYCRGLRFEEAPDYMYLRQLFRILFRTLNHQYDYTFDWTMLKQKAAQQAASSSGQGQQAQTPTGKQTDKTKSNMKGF
Chain of CK1α (Q96SW2 whole entry): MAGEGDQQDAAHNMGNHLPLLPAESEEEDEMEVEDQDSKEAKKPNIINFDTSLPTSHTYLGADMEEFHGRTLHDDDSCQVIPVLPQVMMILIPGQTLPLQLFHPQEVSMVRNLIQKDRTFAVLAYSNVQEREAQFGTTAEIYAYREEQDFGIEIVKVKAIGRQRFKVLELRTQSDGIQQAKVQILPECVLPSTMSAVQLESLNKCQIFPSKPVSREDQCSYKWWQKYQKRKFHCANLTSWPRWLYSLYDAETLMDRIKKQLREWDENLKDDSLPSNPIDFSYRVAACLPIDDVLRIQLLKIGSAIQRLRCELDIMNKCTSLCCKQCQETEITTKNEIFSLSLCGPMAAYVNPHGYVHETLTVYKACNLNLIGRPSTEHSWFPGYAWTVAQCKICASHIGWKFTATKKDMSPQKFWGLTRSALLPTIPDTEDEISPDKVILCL
Chain of CK1α (Q16531 whole entry partner): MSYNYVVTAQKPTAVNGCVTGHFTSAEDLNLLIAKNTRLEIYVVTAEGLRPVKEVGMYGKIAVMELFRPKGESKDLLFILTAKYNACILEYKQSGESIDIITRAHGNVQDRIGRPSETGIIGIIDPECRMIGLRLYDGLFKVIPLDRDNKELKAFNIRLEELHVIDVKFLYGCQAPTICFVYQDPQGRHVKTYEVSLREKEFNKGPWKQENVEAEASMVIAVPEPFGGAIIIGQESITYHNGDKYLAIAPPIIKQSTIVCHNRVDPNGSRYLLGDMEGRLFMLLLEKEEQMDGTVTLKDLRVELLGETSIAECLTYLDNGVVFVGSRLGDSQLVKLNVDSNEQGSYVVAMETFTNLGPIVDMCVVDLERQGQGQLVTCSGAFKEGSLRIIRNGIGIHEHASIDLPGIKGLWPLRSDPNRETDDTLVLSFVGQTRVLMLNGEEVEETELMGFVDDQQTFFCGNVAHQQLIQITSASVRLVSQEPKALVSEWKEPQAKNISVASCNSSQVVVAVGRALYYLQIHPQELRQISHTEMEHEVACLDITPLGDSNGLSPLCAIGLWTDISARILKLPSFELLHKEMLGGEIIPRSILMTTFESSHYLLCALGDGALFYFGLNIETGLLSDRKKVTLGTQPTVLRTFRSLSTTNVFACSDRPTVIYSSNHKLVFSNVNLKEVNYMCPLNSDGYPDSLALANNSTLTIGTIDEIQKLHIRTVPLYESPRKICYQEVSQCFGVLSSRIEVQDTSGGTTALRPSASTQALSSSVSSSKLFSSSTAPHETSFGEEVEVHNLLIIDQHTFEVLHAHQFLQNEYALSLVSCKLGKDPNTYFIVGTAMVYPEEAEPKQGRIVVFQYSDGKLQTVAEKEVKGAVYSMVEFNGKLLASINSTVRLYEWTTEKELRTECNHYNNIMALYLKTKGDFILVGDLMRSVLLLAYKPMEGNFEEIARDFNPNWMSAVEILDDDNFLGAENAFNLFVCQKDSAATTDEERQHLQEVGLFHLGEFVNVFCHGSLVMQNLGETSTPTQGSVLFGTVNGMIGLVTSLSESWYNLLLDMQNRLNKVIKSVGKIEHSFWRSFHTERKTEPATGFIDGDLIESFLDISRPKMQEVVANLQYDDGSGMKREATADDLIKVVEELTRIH
Description: MV-4-11 cells were obtained from ATCC and grown in IMDM supplemented with 10% FBS. The cells were maintained at 37° C. under 5% CO2.
Compounds of the present disclosure were added to cells (final DMSO concentration of 0.5%) and incubated for 16 hours. CK1α level was determined in MV4-11 cells using flow cytometry (Luminex, Guava EasyCyte Plus). Briefly, cells were prepared with sequential 10% formalin and 70% methanol fixation. […] GuavaSoft Incyte software was used to analyse the flow cytometry data. Protein levels relative to DMSO are calculated for CK1α.
The efficacy of CK1α degradation of other part of compounds of the present disclosure was determined by treating MV4-11 cells at […] (Final DMSO concentration of 0.5%) for 16 hours. Protein levels relative to DMSO are calculated for CK1α.
Protein levels relative to DMSO are calculated for CK1α.

[1] = MV4-11, IC50 class, MV-4-11 cells, RealTime-Glo after 44 hrs of treatment (TABLE 3)
[2] = MV4-11, IC50 class, MV-4-11 cells, RealTime-Glo after 44 hrs of treatment (TABLE 5)

SMILES	IC50 (MV-4-11 cells; [2])	other results
C/C=C/CCN(CCCCN)c1cccc2c1CN(C1CCC(=O)NC1=O)C2=O (stereo not shown) [Compound 93, (E)-3-(4-((4-aminobutyl)(pent-3-en-1-yl)amino)-1-oxoisoindolin-2-yl)piperidine-2,6-dione hydrochloride]	–	IC50 (MV-4-11 cells; [1]): < 100 nM; Dmax at 0.316 µM (CK1α): > 75%
C/C=C\CCN(CCCCN)c1cccc2c1CN(C1CCC(=O)NC1=O)C2=O (stereo not shown) [Compound 94, (Z)-3-(4-((4-aminobutyl)(pent-3-en-1-yl)amino)-1-oxoisoindolin-2-yl)piperidine-2,6-dione]	–	IC50 (MV-4-11 cells; [1]): < 100 nM; Dmax at 0.316 µM (CK1α): > 75%
CC#CCCN(CCCCN)c1cccc2c1CN(C1CCC(=O)NC1=O)C2=O (stereo not shown) [Compound 95, 3-(4-((4-aminobutyl)(pent-3-yn-1-yl)amino)-1-oxoisoindolin-2-yl)piperidine-2,6-dione, HCl]	–	IC50 (MV-4-11 cells; [1]): 100 to 1000 nM; Dmax at 0.316 µM (CK1α): < 50%
CCCCCN(CCCCNCCCC)c1cccc2c1CN(C1CCC(=O)NC1=O)C2=O (stereo not shown) [Compound 166, 3-(4-((4-(butylamino)butyl)(pentyl)amino)-1-oxoisoindolin-2-yl)piperidine-2,6-dione, HCl]	–	IC50 (MV-4-11 cells; MV4-11, 44 h): 100 to 1000 nM; Dmax at 0.316 µM (CK1α): > 75%
CCCCCN(CCCCNCCC(C)C)c1cccc2c1CN(C1CCC(=O)NC1=O)C2=O (stereo not shown) [Compound 167, 3-(4-((4-(isopentylamino)butyl)(pentyl)amino)-1-oxoisoindolin-2-yl)piperidine-2,6-dione. HCl]	–	IC50 (MV-4-11 cells; [1]): 100 to 1000 nM; Dmax at 0.316 µM (CK1α): > 75%
CCCCCN(c1cccc2c1CN(C1CCC(=O)NC1=O)C2=O)[C@H]1CC[C@H](NC(C)=O)CC1 (stereo partly shown) [Compound 168, N-((1r,4r)-4-((2-(2,6-dioxopiperidin-3-yl)-1-oxoisoindolin-4-yl)(pentyl)amino)cyclohexyl)acetamide]	–	IC50 (MV-4-11 cells; [1]): 100 to 1000 nM; Dmax at 0.316 µM (CK1α): > 75%
CCCCCN(c1cccc2c1CN(C1CCC(=O)NC1=O)C2=O)[C@H]1CC[C@H](NC)CC1 (stereo partly drawn) [Compound 169, 3-(4-(((1R,4R)-4-(methylamino)cyclohexyl)(pentyl)amino)-1-oxoisoindolin-2-yl)piperidine-2,6-dione hydrochloride]	–	IC50 (MV-4-11 cells; MV4-11, 44 h): < 100 nM; Dmax at 0.316 µM (CK1α): > 75%
O=C1CCC(N2Cc3c(cccc3N(CCC3CC3)[C@H]3CC[C@H](NCCCC(F)(F)F)CC3)C2=O)C(=O)N1 (stereo partly shown) [Compound 642]	< 100 nM	–
O=C1CCC(N2Cc3c(cccc3N(CCC3CC3)[C@H]3CC[C@H](NCC(F)(F)C(F)(F)F)CC3)C2=O)C(=O)N1 (stereo partly shown) [Compound 644]	> 1000 nM	–
O=C1CCC(N2Cc3c(cccc3N(CCC3CC3)[C@H]3CC[C@H](NCCC4(C(F)(F)F)CC4)CC3)C2=O)C(=O)N1 (stereo partly shown) [Compound 645, 3-{4-[(2-cyclopropylethyl)[(1r,4r)-4-({2-[1-(trifluoromethyl)cyclopropyl]ethyl}amino)cyclohexyl]amino]-1-oxo-3H-isoindol-2-yl}piperidine-2,6-dione trifluoroacetic acid]	< 100 nM	–
O=C1CCC(N2Cc3c(cccc3N(CCC3CC3)[C@H]3CC[C@H](NCCOC(F)(F)F)CC3)C2=O)C(=O)N1 (stereo partly shown) [Compound 647]	< 100 nM	–
CCCN(c1cccc2c1CN(C1CCC(=O)NC1=O)C2=O)[C@H]1CC[C@H](NCCC(F)(F)F)CC1 (stereo partly shown) [Compound 648, 3-(1-oxo-4-{propyl[(1r,4r)-4-[(3,3,3-trifluoropropyl)amino]cyclohexyl]amino}-3H-isoindol-2-yl)piperidine-2,6-dione trifluoroacetic acid]	< 100 nM	–
O=C1CCC(N2Cc3c(cccc3N(CC3CCC3)[C@H]3CC[C@H](NCCC(F)(F)F)CC3)C2=O)C(=O)N1 (stereo partly shown) [Compound 649, 3-{4-[(cyclobutylmethyl)[(1r,4r)-4-[(3,3,3-trifluoropropyl)amino]cyclohexyl]amino]-1-oxo-3H-isoindol-2-yl}piperidine-2,6-dione trifluoroacetic acid]	100 to 1000 nM	–
O=C1CCC(N2Cc3c(cccc3N(CC3CC3)[C@H]3CC[C@H](NCC4(C(F)(F)F)CC4)CC3)C2=O)C(=O)N1 (stereo partly shown) [Compound 653, 3-(4-((cyclopropylmethyl)((1r,4r)-4-(((1-(trifluoromethyl)cyclopropyl)methyl)amino)cyclohexyl)amino)-1-oxoisoindolin-2-yl)piperidine-2,6-dione formate]	100 to 1000 nM	–
O=C1CCC(N2Cc3c(cccc3N(CC3CCC3)[C@H]3CC[C@H](NCC4(C(F)(F)F)CC4)CC3)C2=O)C(=O)N1 (stereo partly shown) [Compound 654, 3-(4-((cyclobutylmethyl)((1r,4r)-4-(((1-(trifluoromethyl)cyclopropyl)methyl)amino)cyclohexyl)amino)-1-oxoisoindolin-2-yl)piperidine-2,6-dione]	100 to 1000 nM	–
O=C1CCC(N2Cc3c(cccc3N(CCC3CC3)C3CCC4(CC3)COCCN4)C2=O)C(=O)N1 (stereo not shown) [Compound 679, 3-(4-((2-cyclopropylethyl)(4-oxa-1-azaspiro[5.5]undecan-9-yl)amino)-1-oxoisoindolin-2-yl)piperidine-2,6-dione]	100 to 1000 nM	–
CN(CCC(F)F)[C@H]1CC[C@@H](N(CCC2CC2)c2cccc3c2CN(C2CCC(=O)NC2=O)C3=O)CC1 (stereo partly shown) [Compound 683A, 3-(4-((2-cyclopropylethyl)((1s,4s)-4-((3,3-difluoropropyl)(methyl)amino)cyclohexyl)amino)-1-oxoisoindolin-2-yl)piperidine-2,6-dione bis(2,2,2-trifluoroacetate)]	100 to 1000 nM	–
O=C1CCC(N2Cc3c(cccc3N(CCC3CC3)[C@H]3CC[C@H](CNCCC(F)(F)F)CC3)C2=O)C(=O)N1 (stereo partly shown) [Compound 708, 3-(4-((2-cyclopropylethyl)((1r,4r)-4-(((3,3,3-trifluoropropyl)amino)methyl)cyclohexyl)amino)-1-oxoisoindolin-2-yl)piperidine-2,6-dione]	100 to 1000 nM	–
O=C1CCC(N2Cc3c(cccc3N(CCC3CC3)[C@H]3CC[C@@H](CNCCC(F)(F)F)CC3)C2=O)C(=O)N1 (stereo partly shown) [Compound 708A, 3-(4-((2-cyclopropylethyl)((1s,4s)-4-(((3,3,3-trifluoropropyl)amino)methyl)cyclohexyl)amino)-1-oxoisoindolin-2-yl)piperidine-2,6-dione]	< 100 nM	–
O=C1CCC(N2Cc3c(cccc3N(CCC3CC3)[C@H]3CC[C@H](N4CCC5(C4)CC5(F)F)CC3)C2=O)C(=O)N1 (stereo partly shown) [Compound 711, 3-(4-((2-cyclopropylethyl)((1r,4r)-4-(1,1-difluoro-5-azaspiro[2.4]heptan-5-yl)cyclohexyl)amino)-1-oxoisoindolin-2-yl)piperidine-2,6-dione 2,2,2-trifluoroacetate]	100 to 1000 nM	–
O=C1CCC(N2Cc3c(cccc3N(CCC3CC3)[C@H]3CC[C@@H](N4CCC5(C4)CC5(F)F)CC3)C2=O)C(=O)N1 (stereo partly shown) [Compound 711A, 3-(4-((2-cyclopropylethyl)((1s,4s)-4-(1,1-difluoro-5-azaspiro[2.4]heptan-5-yl)cyclohexyl)amino)-1-oxoisoindolin-2-yl)piperidine-2,6-dione 2,2,2-trifluoroacetate]	> 1000 nM	–
O=C1CCC(N2Cc3c(cccc3N(CCC3CC3)[C@H]3CC[C@H](N4CC[C@H](C(F)(F)F)C4)CC3)C2=O)C(=O)N1 (stereo partly drawn) [Compound 712, 3-(4-((2-cyclopropylethyl)((1S,4r)-4-((S)-3-(trifluoromethyl)pyrrolidin-1-yl)cyclohexyl)amino)-1-oxoisoindolin-2-yl)piperidine-2,6-dione 2,2,2-trifluoroacetate]	100 to 1000 nM	–
O=C1CCC(N2Cc3c(cccc3N(CCC3CC3)[C@H]3CC[C@@H](N4CC[C@H](C(F)(F)F)C4)CC3)C2=O)C(=O)N1 (stereo partly drawn) [Compound 712A, 3-(4-((2-cyclopropylethyl)((1R,4s)-4-((S)-3-(trifluoromethyl)pyrrolidin-1-yl)cyclohexyl)amino)-1-oxoisoindolin-2-yl)piperidine-2,6-dione 2,2,2-trifluoroacetate]	> 1000 nM	–
O=C1CCC(N2Cc3c(cccc3N(CCC3CC3)[C@H]3CC[C@H](N4CC[C@@H](C(F)(F)F)C4)CC3)C2=O)C(=O)N1 (stereo partly drawn) [Compound 713, 3-(4-((2-cyclopropylethyl)((1R,4r)-4-((R)-3-(trifluoromethyl)pyrrolidin-1-yl)cyclohexyl)amino)-1-oxoisoindolin-2-yl)piperidine-2,6-dione bis(2,2,2-trifluoroacetate)]	100 to 1000 nM	–
O=C1CCC(N2Cc3c(cccc3N(CCC3CC3)[C@H]3CC[C@@H](N4CC[C@@H](C(F)(F)F)C4)CC3)C2=O)C(=O)N1 (stereo partly drawn) [Compound 713A, 3-(4-((2-cyclopropylethyl)((1S,4s)-4-((R)-3-(trifluoromethyl)pyrrolidin-1-yl)cyclohexyl)amino)-1-oxoisoindolin-2-yl)piperidine-2,6-dione bis(2,2,2-trifluoroacetate)]	> 1000 nM	–
CN1CCC(CN(CCC2CC2)c2cccc3c2CN(C2CCC(=O)NC2=O)C3=O)CC1 (stereo not shown) [Compound 714, 3-(4-((2-cyclopropylethyl)((1-methylpiperidin-4-yl)methyl)amino)-1-oxoisoindolin-2-yl)piperidine-2,6-dione]	> 1000 nM	–
O=C1CCC(N2Cc3c(cccc3N(CCC3CC3)[C@H]3CC[C@@H](N4CCC(F)(F)CC4)CC3)C2=O)C(=O)N1 (stereo partly shown) [Compound 716A, 3-(4-((2-cyclopropylethyl)((1s,4s)-4-(4,4-difluoropiperidin-1-yl)cyclohexyl)amino)-1-oxoisoindolin-2-yl)piperidine-2,6-dione tris(2,2,2-trifluoroacetate)]	> 1000 nM	–
